Test system: SARS-CoV-2
Assay: microbe, parasite or virus in culture
Settings: Severe acute respiratory syndrome coronavirus 2, Vero C1008, 48 h

| SMILES | IC50 | IC50 (read-out: pIC50 (converted)) |
| --- | --- | --- |
| COc1cc(C(=O)C(=O)N(C)[C@@H](Cc2ccc(Cl)cc2)C(=O)N(Cc2ccccc2)C(CCc2ccncc2)CCc2ccncc2)cc(OC)c1OC [TIMCODAR] | > 20 µM | > 20 µM |
| COc1c2ccoc2cc2oc(=O)ccc12 [BERGAPTEN] | > 20 µM | > 20 µM |
| OC(CCN1CCCCC1)(c1ccccc1)C1C[C@@H]2C=C[C@H]1C2 (some centres undefined) | > 20 µM | > 20 µM |
| CCCN(CCC)CCc1ccc(OC)c(OCCc2ccccc2)c1 | > 20 µM | > 20 µM |
| N=C(N)Nc1ccc(C(=O)Oc2ccc3cc(C(=N)N)ccc3c2)cc1 [NAFAMOSTAT] | > 20 µM | > 20 µM |
| CCN(CC)CC(=O)Nc1c(C)cccc1C [LIDOCAINE] | > 20 µM | > 20 µM |
| Cc1cc(CC(=O)O)c(C)n1-c1ccc(Cl)cc1 [CLOPIRAC] | > 20 µM | > 20 µM |
| CC(C)Nc1ccc(Nc2ccccc2)cc1 | > 20 µM | > 20 µM |
| CCN(CC)CCNC(=O)c1cc(S(C)(=O)=O)ccc1OC [TIAPRIDE] | > 20 µM | > 20 µM |
| Cc1c(OCC(F)(F)F)ccnc1C[S+]([O-])c1nc2ccccc2[nH]1 (centres undefined) [LANSOPRAZOLE] | > 20 µM | > 20 µM |
| O=C1c2cccc(O)c2C(=O)c2c(O)cccc21 [DANTHRON] | > 20 µM | > 20 µM |
| N[C@@H](C(=O)N[C@@H]1C(=O)N2C(C(=O)O)=C(Cl)CS[C@H]12)c1ccccc1 [CEFACLOR ANHYDROUS] | > 20 µM | > 20 µM |
| CCCCC[C@H](O)/C=C/[C@@H]1[C@@H](C/C=C\CCCC(=O)O)[C@@H](O)C[C@H]1O [DINOPROST] | > 20 µM | > 20 µM |
| Nc1ccc(C(=O)NCC(=O)O)cc1 [AMINOHIPPURIC ACID] | > 20 µM | > 20 µM |
| CCOCC(O)COc1ccc(NC(=O)CC[S+](C)C)cc1 (centres undefined) | > 20 µM | > 20 µM |
| NCCCCCCNS(=O)(=O)c1cccc2c(Cl)cccc12 | > 20 µM | > 20 µM |
| CNCCc1cnc[nH]1 | > 20 µM | > 20 µM |
| CC(C)=CCc1c2c(c3occ(-c4ccc(O)cc4)c(=O)c3c1O)C=CC(C)(C)O2 [OSAJIN] | > 20 µM | > 20 µM |
| COC(=O)Nc1nc2ccc(C(=O)C3CC3)cc2[nH]1 [CYCLOBENDAZOLE] | > 20 µM | > 20 µM |
| NCCCC(N)C(=O)O (centres undefined) [ORNITHINE aKETOGLUTARATE] | > 10 µM | > 10 µM |
| O=C(O)COC[C@H]1CC[C@H](COC(=O)N(c2ccccc2)c2ccc(Cl)cc2)CC1 | > 20 µM | > 20 µM |
| CC1(C)CC[C@]2(C(=O)O)CC[C@]3(C)C(=CC[C@@H]4[C@@]5(C)CC[C@H](O)C(C)(C)[C@@H]5CC[C@]43C)[C@@H]2C1 [OLEANOLIC_ACID] | > 20 µM | > 20 µM |
| Cc1cc(OC(=O)c2c(C)cc(O)cc2O)cc(O)c1C(=O)O [LECANORIC ACID] | > 20 µM | > 20 µM |
| CCC(=O)O [PROPIONIC ACID] | > 20 µM | > 20 µM |

| SMILES | IC50 | IC50 (read-out: pIC50 (converted)) |
| --- | --- | --- |
| O=C(NC1CCN(CCc2c[nH]c3ccccc23)CC1)c1ccccc1 [INDORAMIN] | > 20 µM | > 20 µM |
| CC[C@H]1OC(=O)[C@H](C)[C@@H](O[C@H]2C[C@@](C)(OC)[C@@H](O)[C@H](C)O2)[C@H](C)[C@@H](O[C@@H]2O[C@H](C)C[C@H](N(C)C)[C@H]2O)[C@](C)(OC)C[C@@H](C)C(=O)[C@H](C)[C@@H](O)[C@]1(C)O [CLARITHROMYCIN] | > 20 µM | > 20 µM |
| C[C@@H]([C@@H](O)c1ccc(O)cc1)N1CCC(O)(c2ccccc2)CC1 [TRAXOPRODIL] | > 20 µM | > 20 µM |
| Cc1ccc(Cl)c(Nc2ccccc2C(=O)O)c1Cl [MECLOFENAMIC ACID] | > 20 µM | > 20 µM |
| Oc1ccc2c3c1O[C@H]1[C@@H](O)CC[C@@]4(O)[C@@H](C2)N(CC2CCC2)CC[C@]314 [NALBUPHINE] | > 50.1 µM | > 50.1 µM |
| O=C(O)c1cccnc1Nc1cccc(C(F)(F)F)c1 [NIFLUMIC ACID] | > 20 µM | > 20 µM |
| CCOC(=O)[C@H](CCc1ccccc1)N[C@H]1CS[C@H](c2cccs2)CN(CC(=O)O)C1=O [TEMOCAPRIL] | > 20 µM | > 20 µM |
| COc1ccc(-c2ccc3cc(C(=O)O)ccc3c2)cc1C12CC3CC(CC(C3)C1)C2 | > 20 µM | > 20 µM |
| CCC(C)C(NC(=O)C(CCC(N)=O)NC(=O)C1CCCN1C(=O)C(CCCNC(=N)N)NC(=O)C1CCCN1C(=O)C(Cc1c[nH]c2ccccc12)NC(=O)C1CCC(=O)N1)C(=O)N1CCCC1C(=O)N1CCCC1C(=O)O (centres undefined) | > 20 µM | > 20 µM |
| COc1ccc(/C=C/C(=O)/C=C(O)/C=C/c2ccc(OC)c(OC)c2)cc1OC | > 20 µM | > 20 µM |
| COc1ccc2c(OC)c3ccoc3nc2c1OC [SKIMMIANINE] | > 20 µM | > 20 µM |
| O=C(O)Cc1ccccc1Nc1c(Cl)cccc1Cl [DICLOFENAC] | > 20 µM | > 20 µM |
| CC(=O)Nc1ccc(S(=O)(=O)Nc2ccc([N+](=O)[O-])cc2)cc1 | > 20 µM | > 20 µM |
| Cc1scc2c1N(C(=O)CN1CCN(C)CC1)c1ccccc1NC2=O [TELENZEPINE] | > 20 µM | > 20 µM |
| COC(=O)Nc1cccc(C)c1CNc1cccn2c(C)c(C)nc12 [PUMAPRAZOLE] | > 20 µM | > 20 µM |
| O=C(Cn1ccnc1)c1ccc2ccccc2c1 [NAFIMIDONE] | > 20 µM | > 20 µM |
| CCC[C@H](N[C@@H](C)C(=O)N1C2CCCCC2C[C@H]1C(=O)O)C(=O)OCC (some centres undefined) | > 20 µM | > 20 µM |
| CCOc1cc2c(c(F)c1OCC)C(=N)N(CC(=O)c1cc(N3CCOCC3)c(OC)c(C(C)(C)C)c1)C2 [ATOPAXAR] | > 20 µM | > 20 µM |
| CCOC(=O)Nc1ccc2c(c1)N(C(=O)CCN1CCOCC1)c1ccccc1S2 [MORICIZINE] | > 20 µM | > 20 µM |
| Nc1ccccc1NC(=O)c1ccc(CNc2nccc(-c3cccnc3)n2)cc1 [MOCETINOSTAT] | > 20 µM | > 20 µM |
| O=C1CC[C@@H](C(=O)O)N1 [PIDOLIC ACID] | > 20 µM | > 20 µM |
| O=C1c2ccccc2C(=O)c2c1ccc(O)c2O [ATHRAQUINONES A] | > 20 µM | > 20 µM |
| COc1cc(/C=C/C(=O)O)cc(OC)c1OC [SINAPIC ACID METHYL ETHER] | > 20 µM | > 20 µM |
| Nc1ccc(S(=O)(=O)Nc2ccccn2)cc1 [SULFAPYRIDINE] | > 20 µM | > 20 µM |

| SMILES | IC50 | IC50 (read-out: pIC50 (converted)) |
| --- | --- | --- |
| CC=CC(=O)N(CC)c1ccccc1C | > 20 µM | > 20 µM |
| O=C1N(c2ccccc2)c2ccccc2C1(Cc1ccncc1)Cc1ccncc1 [LINOPIRDINE] | > 20 µM | > 20 µM |
| CC(C)/N=c1\cc2n(-c3ccc(Cl)cc3)c3ccccc3nc-2cc1Nc1ccc(Cl)cc1 [CLOFAZIMINE] | > 20 µM | > 20 µM |
| O=C(O)C(O)C(O)C(=O)O (centres undefined) [TARTARIC ACID] | > 20 µM | > 20 µM |
| CNC(=O)COc1ccccc1OCC(O)CNC(C)(C)C (centres undefined) [CETAMOLOL] | > 20 µM | > 20 µM |
| C[C@]12CC[C@H]3[C@@H](CC[C@@]45O[C@@H]4C(O)=C(C#N)C[C@]35C)[C@@H]1CC[C@@H]2O [TRILOSTANE] | > 20 µM | > 20 µM |
| CC(C)CN(C[C@@H](OP(=O)(O)O)[C@H](Cc1ccccc1)NC(=O)O[C@H]1CCOC1)S(=O)(=O)c1ccc(N)cc1 [FOSAMPRENAVIR] | > 20 µM | > 20 µM |
| O=C(Oc1ccc(Br)cc1)N1CCN2CCC1CC2 [SSR180711] | > 20 µM | > 20 µM |
| Cc1cc(C(C)(C)C)c(O)c(C)c1CC1=NCCN1 [OXYMETAZOLINE] | > 20 µM | > 20 µM |
| CCN1C(=CC=CC=Cc2sc3ccccc3[n+]2CC)Sc2ccccc21 [DITHIAZANINE] | > 20 µM | > 20 µM |
| O=C(Nc1ccc(Cl)cc1)Nc1ccc(Cl)c(Cl)c1 [TRICLOCARBAN] | > 20 µM | > 20 µM |
| COC(=O)[C@]12CCC(C)(C)C[C@H]1[C@H]1C(=O)C=C3[C@@]4(C)C=C(C#N)C(=O)C(C)(C)[C@@H]4CC[C@@]3(C)[C@]1(C)CC2 [BARDOXOLONE METHYL] | > 20 µM | > 20 µM |
| COc1cccc2c1C(=O)c1c(O)c3c(c(O)c1C2=O)CC(O)(/C(C)=N/NC(=O)c1ccccc1)CC3OC1CC(N)C(O)C(C)O1 (centres undefined) | > 20 µM | > 20 µM |
| C=C1CC[C@H]2[C@@H](/C=C(/C)C(=O)[C@@]3(OC(C)=O)C[C@H](C)[C@H](OC(=O)c4ccccc4)[C@@H]3[C@H]1OC(C)=O)C2(C)C | > 20 µM | > 20 µM |
| COc1ccc(S(=O)(=O)N(C(C)=O)c2ccccc2/C=C/c2cc[n+]([O-])cc2)cc1 [HMN-214] | > 20 µM | > 20 µM |
| CC(C(O)(Cn1cncn1)c1ccc(F)cc1F)S(C)(=O)=O (centres undefined) | > 20 µM | > 20 µM |
| COc1c2ccoc2c(OC)c2oc(=O)ccc12 [ISOPIMPINELLIN] | > 20 µM | > 20 µM |
| C[C@]1(c2nc3c(C(N)=O)cccc3[nH]2)CCCN1 [VELIPARIB] | > 20 µM | > 20 µM |
| C[C@@H]1O[C@@H](O[C@H]2[C@H](Oc3cc(O)c4c(c3)O[C@H](c3ccc(O)cc3)CC4=O)O[C@H](CO)[C@@H](O)[C@@H]2O)[C@H](O)[C@H](O)[C@H]1O [NARINGIN] | > 20 µM | > 20 µM |
| COC1C(C)OC(OC2C=C3CCC4C(CCC5(C)C(c6ccc(=O)oc6)CCC45O)C3(C)CC2)C(O)C1O (centres undefined) | > 20 µM | > 20 µM |
| CC(CCc1ccccc1)NCC(O)c1ccc(O)c(C(N)=O)c1 (centres undefined) [LABETALOL] | > 20 µM | > 20 µM |
| CO[C@@]12[C@H](COC(N)=O)C3=C(C(=O)C(C)=C(N)C3=O)N1C[C@@H]1N[C@@H]12 [MITOMYCIN] | > 20 µM | > 20 µM |
| COc1ccc(OC)c(C(O)C(C)NC(C)(C)C)c1 (centres undefined) [BUTOXAMINE] | > 20 µM | > 20 µM |
| CC(C)NCC1CCc2cc(CO)c([N+](=O)[O-])cc2N1 (centres undefined) [OXAMNIQUINE] | > 20 µM | > 20 µM |

Source: ChEMBL document CHEMBL4651402, “Screening of ~5500 FDA-approved drugs and clinical candidates for anti-SARS-CoV-2 activity” (2021)
